Results on 17 molecules are retold here after PubChem BioAssay (NCI).

Test systems include DLD-1 colon; DMS 114 small cell lung; DMS 273 small cell lung; HOP-18 NSCLC; KM20L2 colon; LXFL 529 NSCLC; P388 leukemia; P388/ADR leukemia; SN12K1 renal; RXF-631 renal.
Test in all cases: NCI tumour cell line growth inhibition, 48 h

The structures appear in SMILES notation.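 All cell lines were grown in 96-well plates and treated with compound for 48 hours. Definition used: TGI = concentration required for complete inhibition of growth.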

Consider `CCSCN(C)c1nc(N(C)C)nc(N(C)C)n1`, for which the TGI in the assay on DLD-1 colon was more than 100 µM; in the assay with DMS 114 small cell lung it was 89.7 µM; in the assay with DMS 273 small cell lung, more than 100 µM; in the assay with HOP-18 NSCLC it was more than 100 µM; with KM20L2 colon it was more than 100 µM; in the assay with LXFL 529 NSCLC, more than 100 µM.
In the case of `COc1cc(C2C(Cl)C(=O)N2NC(=O)c2ccc(NC(C)=O)cc2)ccc1O` (stereo unspecified), the TGI in the assay on DLD-1 colon, with DMS 114 small cell lung, in the assay with DMS 273 small cell lung, in the assay on KM20L2 colon and with LXFL 529 NSCLC was more than 100 µM throughout.
As to `CCOC(=O)c1cc2c(OCc3ccccc3)c(OC)cc3c2c(n1)N(c1ccc(OC)cc1)C(C)C3` (stereo unspecified), the TGI in the assay on DLD-1 colon, in the assay with DMS 114 small cell lung, with DMS 273 small cell lung, in the assay on HOP-18 NSCLC, in the assay on KM20L2 colon and in the assay on LXFL 529 NSCLC was more than 50 µM in each case.
As for `C[S+](C)CC1OC(n2cnc3c(N)ncnc32)C(O)C1O` (stereo unspecified), the TGI with DLD-1 colon was more than 225 µM; with DMS 114 small cell lung, more than 225 µM; in the assay on DMS 273 small cell lung, more than 225 µM; with KM20L2 colon, more than 225 µM; in the assay with P388 leukemia, more than 225 µM; in the assay with P388/ADR leukemia, more than 22.5 µM. Also, the TGI in the assay with SN12K1 renal was more than 225 µM.
Regarding `CN(C)CCNC(=O)c1cccc2cc3cc(O)ccc3nc12`, the TGI with DLD-1 colon was determined as 4.88 µM; in the assay with DMS 114 small cell lung, 3.13 µM; in the assay with DMS 273 small cell lung it was 2.52 µM; in the assay on HOP-18 NSCLC it was 3.83 µM; in the assay on KM20L2 colon, 8.13 µM; in the assay on P388 leukemia, 1.25 µM. For the same molecule, the TGI in the assay with P388/ADR leukemia came to 2.33 µM; with SN12K1 renal it was 2.66 µM.
Turning to `CC1(C)C2CCC3(OCCO3)C1C(O)C2` (stereo unspecified), the TGI in the assay with DLD-1 colon, in the assay with DMS 273 small cell lung, in the assay with HOP-18 NSCLC, with KM20L2 colon, in the assay with LXFL 529 NSCLC and in the assay with RXF-631 renal was more than 100 µM throughout.
`O=NN(CCF)C(=O)NC1CC2CCC1C2` (stereo unspecified): the TGI is more than 100 µM in the assay on DLD-1 colon; more than 100 µM with DMS 114 small cell lung; more than 100 µM in the assay with DMS 273 small cell lung; more than 100 µM in the assay with HOP-18 NSCLC; more than 100 µM with KM20L2 colon; 50.3 µM in the assay on P388 leukemia. The TGI with P388/ADR leukemia and with SN12K1 renal was more than 100 µM in each case.
On to `COc1ccc2c(c1)OCCc1cn[nH]c1-2`, for which the TGI in the assay on DLD-1 colon, with DMS 114 small cell lung, in the assay with DMS 273 small cell lung, with HOP-18 NSCLC, in the assay on KM20L2 colon and in the assay on P388 leukemia was more than 100 µM in each case. In addition, the TGI with P388/ADR leukemia and in the assay on SN12K1 renal was more than 100 µM each time.
Turning to `COc1ccc2nc3c(c(NCCCN(C)C)c2c1)CCCC3`, the TGI in the assay on DLD-1 colon worked out at 28.4 µM; in the assay with DMS 114 small cell lung, 28.5 µM; with DMS 273 small cell lung, 24.8 µM; with KM20L2 colon, 22.4 µM; with LXFL 529 NSCLC, 28.7 µM; in the assay with RXF-631 renal it was 28.7 µM.
`CC(=O)NNc1nc(C)c(C(=O)NNC(=O)C(=O)Nc2cccc(C(C)=O)c2)s1`: the TGI in the assay with DLD-1 colon was 98.9 µM; with DMS 114 small cell lung, 34.2 µM; in the assay with DMS 273 small cell lung, more than 100 µM; in the assay on KM20L2 colon it was more than 100 µM; with RXF-631 renal, 68.3 µM.
On to `Cc1ccc(N(O)C(C)(C)C)cc1`, for which the TGI with DLD-1 colon, in the assay on DMS 114 small cell lung, with DMS 273 small cell lung, in the assay on HOP-18 NSCLC, in the assay with KM20L2 colon and with P388 leukemia was more than 100 µM throughout. Moreover, the TGI with P388/ADR leukemia and in the assay with SN12K1 renal was more than 100 µM throughout.
In the case of `Cc1cn(C2CC(CCCO)C(CO)O2)c(=O)[nH]c1=O` (stereo unspecified), the TGI in the assay on DLD-1 colon, with DMS 114 small cell lung, with DMS 273 small cell lung, in the assay with KM20L2 colon and with LXFL 529 NSCLC was more than 100 µM in each case.
Turning to `COc1cccc(/C(Cl)=C(\C=O)c2cccc(OC)c2)c1`, the TGI stood at 29.1 µM in the assay on DLD-1 colon; 16.4 µM with DMS 114 small cell lung; 28.5 µM in the assay on DMS 273 small cell lung; 41.9 µM in the assay with HOP-18 NSCLC; 47.8 µM in the assay on KM20L2 colon; 20.9 µM with LXFL 529 NSCLC.
As for `CCOC(=O)C(C)Sc1nnc(COc2ccccc2OC)n1-c1ccccc1` (stereo unspecified), the TGI in the assay on DLD-1 colon was more than 100 µM; in the assay with DMS 114 small cell lung, 28.1 µM; with DMS 273 small cell lung, more than 100 µM; with HOP-18 NSCLC, more than 100 µM; in the assay with KM20L2 colon, more than 100 µM; with LXFL 529 NSCLC, more than 100 µM.
Consider `CC(C)(C)C(=O)OCC1OC(N=[N+]=[N-])C(OC(=O)C(C)(C)C)C(OC(=O)C(C)(C)C)C1OC(=O)C(C)(C)C` (stereo unspecified), for which the TGI in the assay on DLD-1 colon, with DMS 114 small cell lung, in the assay on DMS 273 small cell lung, with KM20L2 colon and with LXFL 529 NSCLC was more than 100 µM throughout.
For `CCC(COC(=O)CC[C@@H](NC(=O)C(C)NC(=O)C(C)OC1C(O)C(CO)OC(OCc2ccccc2)C1NC(C)=O)C(N)=O)NC1c2ccccc2Nc2cccc([N+](=O)[O-])c21` (stereo partly specified), the TGI in the assay with DLD-1 colon, with DMS 114 small cell lung, in the assay with DMS 273 small cell lung, with HOP-18 NSCLC, in the assay with KM20L2 colon and with LXFL 529 NSCLC was more than 100 µM throughout.
For the molecule `O=c1c2ccccc2nc(-c2ccccc2)n1NC(=S)Nc1ccc(Cl)cc1`, the TGI with DLD-1 colon, with DMS 114 small cell lung, in the assay with DMS 273 small cell lung, in the assay with HOP-18 NSCLC and with LXFL 529 NSCLC was more than 100 µM throughout.
